Experimental data: US9981950B2, “Triazoles as NR2B receptor inhibitors” (Janssen Pharmaceuticals, Inc., priority 2014, dated 2018)

What was measured:
[1] = molecular target: T1, rat NR1/NR2B receptor (Rattus norvegicus (Rat), UniProt P35439+Q00960); experiment: NR2B binding assay: inhibition of specific [3H]-Ifenprodil binding to the rat NR1/NR2B receptor; details: rat brain membranes, Hill-plot 2-parameter-model
Protocol: Inhibition of Specific Binding to the Rat NR1/NR2B Receptor
(§1) Male Wistar rats (180 to 200 g) were killed by suffocation in a CO2 chamber for two minutes. Whole brains without cerebellum were removed and dissected on ice, placed into closed vials and stored at −70° C.
Membrane fractions were prepared and tested using standard techniques. At the time of the assay, 1 g of the brains was placed into 25 ml of 50 mM Tris/10 mM EDTA buffer, pH 7.1, (25 vol. per g of original tissue) and homogenized for 30 sec at 20000 rpm with an Ultraturrax T25 (Jahnke & Kunkel, IKA-Labortechnik, Staufen, Germany). The homogenate was centrifuged at 4° C. for 10 min at 48000 g (OPTIMA L-70, Beckman, Palo Alto, Calif. 94304, USA).
The supernatant was discarded and the pellet was homogenized on ice for 30 sec at 20000 rpm with an Ultraturrax and again centrifuged at 48000 g for 30 minutes at 4° C. The resulted pellet was resuspended in 25 ml of 50 mM Tris/10 mM EDTA buffer, homogenized for 30 sec with an Ultraturrax, aliquoted, frozen at −70° C. and stored until use.
(§2) After thawing on the day of the assay, a 5 ml membrane aliquot was centrifuged at 48000 g for 30 min at 4° C. The pellet was resuspended in 5 ml of 5 mM Tris/1 mM EDTA buffer, pH 7.4, homogenized for 30 sec at 20000 rpm with an Ultraturrax and centrifuged at 48000 g for 30 min at 4° C. This was repeated twice. The final pellet was homogenized in 5 ml of 5 mM Tris/l mM EDTA buffer at 4° C. with an Ultraturrax and used for the Ifenprodil-binding assay as described in the following.
Nonspecific binding was estimated in the presence of […] CP101.606. The samples were incubated for 60 min. at 4° C.
The incubation was terminated by filtration of the membrane preparations using Filtermat B (Pharmacia, Uppsala Sweden) and a Micro Cell Harvester (Skatron, Lier, Norway). The Filtermat B had been presoaked with 1% polyethylene imine and carefully washed with 50 mM Tris/HCl-buffer pH 7.7 after the filtration to separate free and bound radioactivity.
The optimal amount of membrane preparation in the assay had been determined and optimized for each membrane preparation separately before the test.
For pipetting of the incubation mixture we routinely used the robot Biomek2000 (Fa. Beckman).
For determination of IC50 values the Hill-plot, 2-parameter-model was used.

[2] = molecular target: hERG-receptor (Homo sapiens (Human), UniProt Q12809); experiment: HERGBD: inhibition of specific 3H-Dofetilide binding to the hERG-receptor; details: HEK cell membranes with human ERG, Hill-plot 2-parameter-model
hERG-receptor, sequence (Q12809 whole entry): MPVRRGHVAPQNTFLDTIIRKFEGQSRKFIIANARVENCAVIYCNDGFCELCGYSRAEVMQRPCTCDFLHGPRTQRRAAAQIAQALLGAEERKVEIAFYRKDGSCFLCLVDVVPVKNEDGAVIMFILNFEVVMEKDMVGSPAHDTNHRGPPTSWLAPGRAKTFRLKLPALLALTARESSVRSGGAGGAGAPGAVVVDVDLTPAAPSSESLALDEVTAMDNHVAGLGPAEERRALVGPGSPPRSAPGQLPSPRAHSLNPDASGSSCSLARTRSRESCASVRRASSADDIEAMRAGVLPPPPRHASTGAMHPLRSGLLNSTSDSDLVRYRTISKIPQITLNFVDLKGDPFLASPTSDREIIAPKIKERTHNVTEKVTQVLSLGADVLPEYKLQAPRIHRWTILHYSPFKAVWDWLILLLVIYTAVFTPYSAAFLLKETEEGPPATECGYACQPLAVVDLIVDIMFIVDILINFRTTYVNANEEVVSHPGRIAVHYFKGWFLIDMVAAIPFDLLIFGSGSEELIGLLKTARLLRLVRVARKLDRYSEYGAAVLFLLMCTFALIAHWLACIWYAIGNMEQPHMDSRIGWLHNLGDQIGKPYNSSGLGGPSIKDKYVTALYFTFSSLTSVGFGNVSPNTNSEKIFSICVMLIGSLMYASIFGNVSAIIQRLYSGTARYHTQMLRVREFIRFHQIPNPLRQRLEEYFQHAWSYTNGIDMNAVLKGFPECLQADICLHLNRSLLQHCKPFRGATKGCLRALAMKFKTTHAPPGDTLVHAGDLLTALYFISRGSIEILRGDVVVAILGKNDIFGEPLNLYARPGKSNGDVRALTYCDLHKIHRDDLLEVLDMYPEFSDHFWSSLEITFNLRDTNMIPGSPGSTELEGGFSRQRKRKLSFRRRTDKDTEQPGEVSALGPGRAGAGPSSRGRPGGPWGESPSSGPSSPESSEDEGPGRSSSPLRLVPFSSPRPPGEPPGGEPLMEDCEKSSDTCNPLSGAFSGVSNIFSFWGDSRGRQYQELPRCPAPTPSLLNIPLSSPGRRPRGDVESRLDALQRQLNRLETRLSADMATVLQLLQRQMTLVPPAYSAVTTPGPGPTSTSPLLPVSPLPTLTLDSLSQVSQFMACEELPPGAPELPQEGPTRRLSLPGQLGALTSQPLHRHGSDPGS
Protocol: Inhibition of Specific Binding to the hERG-Receptor (HERGBD)
A HEK cell line with stable transfected human ERG receptor was used for the assay. The cells were grown adherently and maintained in DULBECCOS' MEM medium with 10% FBS, 1% non-essential amino acids, 1% Penicillin/Streptomycin and 400 μg/ml G418 (Calbiochem).
For binding assays and membrane preparations the cell culture medium was removed, cells were washed with PBS. Crude membranes for radioligand binding experiments were prepared by scraping the cells off the dishes in ice cold 20 mM HEPES/0.1 mM KCl/pH 7.2. The cell suspension was homogenized on ice (Ultra turrax, 3×20 sec.) and the homogenate was spun for 10 min (1° C., 1000 g, OPTIMA, SW28, 2800 U/min). The supernatant was than centrifuged for 40 min at 100000 g (1° C., OPTIMA, SW28, 23000 U/min). The membrane pellet was resuspended in 20 mM HEPES/0.1 mM KCl/pH 7.2, frozen and stored at −80° C.
After thawing on the day of the assay, the membrane suspension was diluted further with 20 mM HEPES/0.1 mM KCl/pH 7.2.
The incubation mixture of 200 μl contained 1.5 nmol/l 3H-Dofetilide, optimized amount of membrane preparation, 20 mM HEPES/0.1 mM KCl/(pH 7.2) and inhibitor in 1% DMSO. Nonspecific binding was estimated in the presence of […] Dofetilide. The samples were incubated for 90 min. at RT.
Binding was terminated by filtration of the incubated membrane preparations using Filtermat B (Pharmacia, Uppsala Sweden) and a Micro Cell Harvester (Skatron, Lier, Norway). The Filtermat B had been presoaked with 1% polyethylenimine and carefully washed with 0.05 M Tris/HCl-buffer pH=7.7 after the filtration to separate free and bound radioactivity. The filters were counted in a scintillation counter (Betaplate 1205, Berthold, Wildbad, Germany) in order to determine the specific binding of [^3H]-Dofetilide.
The optimal amount of membrane preparation in the assay was determined and optimized for each membrane preparation separately in front of using the membranes in compound testing.
For pipetting of the incubation mixture we routinely use the robot Biomek2000 (Fa. Beckman).

[3] = molecular target: T1, rat NR1/NR2B receptor; experiment: RRNR2BB: inhibition of specific binding to the rat NR1/NR2B receptor; details: [3H]-Ifenprodil binding, rat brain membranes, Hill-plot 2-parameter-model
Protocol: RRNR2BB—Inhibition of Specific Binding to the Rat NR1/NR2B Receptor
as §1
Membrane fractions were prepared and tested using standard techniques. At the time of the assay, 1 g of the brains were placed into 25 ml of 50 mM Tris/10 mM EDTA buffer, pH=7.1, (25 vol. per g of original tissue) and was homogenized for 30 sec at 20000 U/min with an Ultraturrax T25 (Jahnke & Kunkel, IKA-Labortechnik, Staufen, Germany). The homogenate was centrifuged at 4° C. for 10 min at 48000 g (OPTIMA L-70, Beckman, Palo Alto, Calif. 94304, USA). The supernatant was discarded and the pellet was homogenized on ice for 30 sec at 20000 U/min with an Ultraturrax and again centrifuged at 48000 g for 30 minutes at 4° C. The resultant pellet was resuspended in 25 ml of 50 mM Tris/10 mM EDTA buffer, homogenized for 30 sec with an Ultraturrax, aliquoted, frozen at −70° C. and stored until use
as §2, with “aliquote” for “aliquot”, “pH=7.4,” for “pH 7.4,”, “U/min” for “rpm”, “This step” for “This”, “Tris/mM” for “Tris/l mM”, “assay.” for “assay as described in the following.”
Nonspecific binding was estimated in the presence of 10 M CP101.606. The samples were incubated for 60 min. at 4° C.
Binding was terminated by filtration of the incubated membrane preparations using Filtermat B (Pharmacia, Uppsala Sweden) and a Micro Cell Harvester (Skatron, Lier, Norway). The Filtermat B had been presoaked with 1% polyethylenimine and carefully washed with […] Tris/HCl-buffer pH=7.7 after the filtration to separate free and bound radioactivity.
For pipetting of the incubation mixture the robot Biomek2000 (Fa. Beckman) was used.
The IC50 values in the tables below were determined using the Hill-plot, 2-parameter-model.

T1 sequence (Q00960 27-1482, other chains not shown): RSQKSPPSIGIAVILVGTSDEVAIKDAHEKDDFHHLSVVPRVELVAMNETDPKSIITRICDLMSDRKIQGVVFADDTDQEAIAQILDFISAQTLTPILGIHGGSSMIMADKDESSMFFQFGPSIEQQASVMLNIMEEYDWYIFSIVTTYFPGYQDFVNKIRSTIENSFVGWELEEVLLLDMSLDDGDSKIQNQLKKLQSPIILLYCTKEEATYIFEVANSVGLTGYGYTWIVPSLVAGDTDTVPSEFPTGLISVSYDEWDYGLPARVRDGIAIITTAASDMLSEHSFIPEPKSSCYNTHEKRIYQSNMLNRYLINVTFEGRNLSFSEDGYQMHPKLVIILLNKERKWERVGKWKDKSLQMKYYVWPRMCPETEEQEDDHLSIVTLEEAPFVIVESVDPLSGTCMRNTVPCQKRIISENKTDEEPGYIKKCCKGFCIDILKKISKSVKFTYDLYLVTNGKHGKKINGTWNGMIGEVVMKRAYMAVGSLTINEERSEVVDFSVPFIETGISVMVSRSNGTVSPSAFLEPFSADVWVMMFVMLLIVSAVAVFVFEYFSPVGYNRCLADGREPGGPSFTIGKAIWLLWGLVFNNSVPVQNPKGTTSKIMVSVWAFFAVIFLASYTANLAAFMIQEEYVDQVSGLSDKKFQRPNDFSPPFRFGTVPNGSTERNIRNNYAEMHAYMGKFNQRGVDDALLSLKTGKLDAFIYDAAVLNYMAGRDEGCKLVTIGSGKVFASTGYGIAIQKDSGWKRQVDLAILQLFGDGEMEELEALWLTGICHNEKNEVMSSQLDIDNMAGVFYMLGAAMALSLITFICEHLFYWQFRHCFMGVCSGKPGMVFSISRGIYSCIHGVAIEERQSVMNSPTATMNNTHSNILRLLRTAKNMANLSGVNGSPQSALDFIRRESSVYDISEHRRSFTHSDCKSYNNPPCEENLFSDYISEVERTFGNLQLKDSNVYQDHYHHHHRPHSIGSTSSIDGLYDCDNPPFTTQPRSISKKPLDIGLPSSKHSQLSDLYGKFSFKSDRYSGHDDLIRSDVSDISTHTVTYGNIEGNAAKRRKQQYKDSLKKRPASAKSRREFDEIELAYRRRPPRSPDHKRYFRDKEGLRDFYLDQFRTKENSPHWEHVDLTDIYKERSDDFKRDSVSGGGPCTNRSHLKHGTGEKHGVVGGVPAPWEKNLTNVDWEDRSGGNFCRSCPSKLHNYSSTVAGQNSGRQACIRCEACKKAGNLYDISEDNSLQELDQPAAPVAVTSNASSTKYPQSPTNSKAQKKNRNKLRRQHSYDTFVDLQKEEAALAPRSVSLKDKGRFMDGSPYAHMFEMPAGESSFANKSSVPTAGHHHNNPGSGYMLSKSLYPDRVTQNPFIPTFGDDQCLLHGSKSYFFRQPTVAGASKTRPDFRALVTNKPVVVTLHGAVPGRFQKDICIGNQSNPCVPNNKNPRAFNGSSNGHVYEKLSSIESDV

SMILES | IC50 [1] | IC50 [3] | IC50 [2]
Cc1ncnn1Cc1cn(-c2ccc(Cl)cc2)nn1 [Example 8, 1-(4-Chloro-phenyl)-4-(5-methyl-[1,2,4]triazol-1-ylmethyl)-1H-[1,2,3]triazole] | 14300 nM | 14300 nM | 48900 nM
Clc1ccc(-n2cc(Cn3ncnc3C3CCCC3)nn2)cc1 [Example 14, 1-(4-Chloro-phenyl)-4-(5-cyclopentyl-[1,2,4]triazol-1-ylmethyl)-1H-[1,2,3]triazole] | 12500 nM | 12500 nM | 30500 nM
CCCc1nccn1Cc1cn(-c2ccc(Cl)cc2)nn1 [Example 18, 1-(4-Chloro-phenyl)-4-(2-propyl-imidazol-1-ylmethyl)-1H-[1,2,3]triazole] | 46.6 nM | 46.6 nM | 2230 nM
Cc1nc(C2CCC2)n(Cc2cn(-c3ccc(Cl)cc3)nn2)n1 [Example 21, 1-(4-Chloro-phenyl)-4-(5-cyclobutyl-3-methyl-[1,2,4]triazol-1-ylmethyl)-1H-[1,2,3]triazole] |  | > 10000 nM | 3520 nM
Cc1nccn1Cc1cn(-c2ccc(Cl)cc2)nn1 [Example 24, 1-(4-Chloro-phenyl)-4-(2-methyl-imidazol-1-ylmethyl)-1H-[1,2,3]triazole] | 38.4 nM | 38.4 nM | 5640 nM
CCCCc1nccn1Cc1cn(-c2ccc(Cl)cc2)nn1 [Example 27, 4-(2-Butyl-imidazol-1-ylmethyl)-1-(4-chloro-phenyl)-1H-[1,2,3]triazole] | 38.9 nM | 38.9 nM | 570 nM
OCc1nccn1Cc1cn(-c2ccc(Cl)cc2)nn1 [Example 28, 4-(2-Hydroxymethyl-imidazol-1-ylmethyl)-1-(4-chloro-phenyl)-1H-[1,2,3]triazole] | 573 nM | 573 nM | 11200 nM
Cc1nncn1Cc1cn(-c2ccc(Cl)cc2)nn1 [Example 31, 1-(4-Chloro-phenyl)-4-(3-methyl-[1,2,4]triazol-4-ylmethyl)-1H-[1,2,3]triazole] |  | > 10000 nM | 22400 nM
Cc1nccn1Cc1cn(-c2ccc(Cl)c(Cl)c2)nn1 [Example 32, 1-(3,4-Dichloro-phenyl)-4-(2-methyl-imidazol-1-ylmethyl)-1H-[1,2,3]triazole] | 4.92 nM | 4.92 nM | 3930 nM
CCCc1nccn1Cc1cn(-c2ccc(Cl)c(Cl)c2)nn1 [Example 34, 1-(3,4-Dichloro-phenyl)-4-(2-propyl-imidazol-1-ylmethyl)-1H-[1,2,3]triazole] | 7.67 nM | 7.67 nM | 1120 nM
CC(C)c1nccn1Cc1cn(-c2ccc(Cl)c(Cl)c2)nn1 [Example 35, 1-(3,4-Dichloro-phenyl)-4-(2-isopropyl-imidazol-1-ylmethyl)-1H-[1,2,3]triazole] | 7.4 nM | 7.4 nM | 5880 nM
OCCc1nccn1Cc1cn(-c2ccc(Cl)c(Cl)c2)nn1 [Example 40, 4-[2-(2-Hydroxyethyl)-imidazol-1-ylmethyl]-1-(3,4-dichloro-phenyl)-1H-[1,2,3]triazole] | 17.2 nM | 17.2 nM | 14700 nM

More lines, main results first:

IC50 [1] | IC50 [3] | SMILES | IC50 [2]
4.65 nM | 4.65 nM | CCc1nccn1Cc1cn(-c2ccc(Cl)c(Cl)c2)nn1 [Example 33, 1-(3,4-Dichloro-phenyl)-4-(2-ethyl-imidazol-1-ylmethyl)-1H-[1,2,3]triazole] | 2230 nM
17.9 nM | 17.9 nM | Clc1ccc(-n2cc(Cn3ccnc3C3CC3)nn2)cc1Cl [Example 36, 4-(2-Cyclopropyl-imidazol-1-ylmethyl)-1-(3,4-dichloro-phenyl)-1H-[1,2,3]triazole] | 1160 nM
6.84 nM | 6.84 nM | CCCCc1nccn1Cc1cn(-c2ccc(Cl)c(Cl)c2)nn1 [Example 37, 4-(2-Butyl-imidazol-1-ylmethyl)-1-(3,4-dichloro-phenyl)-1H-[1,2,3]triazole] | 585 nM
526 nM | 526 nM | CC(C)(C)c1nccn1Cc1cn(-c2ccc(Cl)c(Cl)c2)nn1 [Example 38, 4-(2-tert-Butyl-imidazol-1-ylmethyl)-1-(3,4-dichloro-phenyl)-1H-[1,2,3]triazole] | 5680 nM
7.58 nM | 7.58 nM | Clc1ccc(-n2cc(Cn3ccnc3C3CCC3)nn2)cc1Cl [Example 39, 4-(2-Cyclobutyl-imidazol-1-ylmethyl)-1-(3,4-dichloro-phenyl)-1H-[1,2,3]triazole] | 1740 nM
26.2 nM | 26.2 nM | FCCc1nccn1Cc1cn(-c2ccc(Cl)c(Cl)c2)nn1 [Example 41, 1-(3,4-Dichloro-phenyl)-4-[2-(2-fluoro-ethyl)-imidazol-1-ylmethyl]-1H-[1,2,3]triazole] | 13700 nM
28.3 nM | 28.3 nM | Fc1ccc(-n2cc(Cn3ccnc3C3CC3)nn2)cc1Cl [Example 44] | 3570 nM
 | > 10000 nM | Cc1nc(C)n(Cc2cn(-c3ccccc3)nn2)n1 [Example 46, 4-(3,5-Dimethyl-[1,2,4]triazol-1-ylmethyl)-1-phenyl-1H-[1,2,3]triazole] | 7580 nM
8.08 nM | 8.08 nM | CC(F)(F)c1cc(-n2cc(Cn3ccnc3CCO)nn2)ccc1F [Example 106, 1-[3-(1,1-Difluoro-ethyl)-4-fluoro-phenyl]-4-[2-(2-hydroxy-ethyl)-imidazol-1-ylmethyl]-1H-[1,2,3]triazole] | 
